Assay results: patent publication US11000568B2, “Means and methods for treating copper-related diseases” (HELMHOLTZ ZENTRUM MÜNCHEN—DEUTSCHES FORSCHUNGSZENTRUM FÜR …, priority 2015, dated 2021)
“Also recorded” adds a separate entry of the source. Numbered stars: 1 amine (or outer) side, 2 acyl side, 3 side chain; on linkers, the order of the positions; unused ones are H or OH. Bridge positions count the residues as written; N and C are the ends. Square brackets hold non-standard residues; d marks the D form. Peptide text beside a SMILES is read from it. * marks the point of attachment. X2 = O=C1OC(C2CCCN2[*:1])=NC1C(=S)NC(CO)C(=O)[*:2]; X1 = CC(C)CC(=O)C1=NC(C(=S)NCC(=O)*)C(=O)O1

Tests used:
diseased LPP−/− rats = test: Acute rescue regimen in diseased LPP−/− rats; assay type: in vivo, rat
[1] = molecular target: mitochondrial respiratory complex IV (Rattus norvegicus, UniProt P00406+P05503)
mitochondrial respiratory complex IV, sequence (P00406 whole entry, other chains not shown): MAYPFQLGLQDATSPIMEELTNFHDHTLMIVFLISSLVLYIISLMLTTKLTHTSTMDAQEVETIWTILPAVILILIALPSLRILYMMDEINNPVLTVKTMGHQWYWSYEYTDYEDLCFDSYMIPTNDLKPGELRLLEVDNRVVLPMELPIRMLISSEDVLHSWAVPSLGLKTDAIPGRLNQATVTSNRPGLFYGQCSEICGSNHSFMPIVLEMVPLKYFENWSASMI

HepG2 cells [2] = test: Cellular MB uptake by competitive ELISA; assay type: in vitro ADME; conditions: 2 and 24 hours
Method: Cellular MB uptake was determined from cell lysates incubated for 2 or 24 h with MB at different concentrations by a competitive ELISA using a monoclonal anti-MB antibody.
Competitive ELISA. All 86 TCS were diluted 1:10 with buffer (PBS, 5% FCS, 0.01% sodium acide). 50 μl of each TCS were pre-incubated with 50 μl MB solution (1000 ng/ml in buffer) or buffer overnight. The experiments were run in duplicates. 50 μl of the pre-incubated sample were added to ELISA plates coated with MB as used for screening. After 10 min, the plates were washed, bound antibodies against MB were detected with HRP conjugated mAbs against the rat IgG isotypes and HRP was visualized with TMB. MAbs that recognized free MB (no signal when pre-incubated with MB, positive signal in the buffer control) were further analyzed in a serial dilution of MB (1000 ng/ml to 2 ng/ml). The four mAbs that best recognized free MB were established (10610, 12D9, 18H7, 21G5, all of rat IgG2a subclass). To increase the sensitivity of the test system, the TCS of the established hybridomas were titrated on ELISA plates coated with MB. The titer of […] was far better (1:1260) than of 12D9 (1:320), 18H7 (1:10) and 21G5 (1:320).
For the test system 10610 was used at a dilution of 1:500 and the pre-incubation time reduced to one hour.

LPP−/− mitochondria = test: Chelator treatment of freshly isolated copper burdened LPP−/− mitochondria (copper extraction); design: species or system rat; conditions: 2 mM each, 30 min incubation
LPP+/− rats = conditions: rat, in vivo
Method: LPP rats were treated with MB either by daily i.p. injections for 3 or 5 consecutive days, or twice daily i.p. injections for 8 consecutive days at a dose of 150 mg/kg bw or 4 days via the drinking water with D-PA at a dose of 100 mg/kg bw/d or TETA at 480 mg/kg bw/d, respectively (Togashi et al., Hepatology 15, 82-87 (1992)). Based on a mean copper content of 250 μg/g w.w. in Atp7b−/− rat livers at the age of treatment start (Zischka et al., log. cit.), a LPP−/− rat liver of 8 g w.w. contains around 31.5 μmol copper. Single MB doses were chosen equimolar to this copper amount. […] Assuming 40 ml water intake per day for a rat weighing 250 g this translates to a dose of 480 mg/kg bw/d. With respect to the mean liver copper content in LPP−/− rats aged 85 days, the molar ratios of the chelators applied was MB 1:D-PA 4.3:TETA 17.4, respectively. For the intravenous MB application (150 mg/kg bw), catheters connected to a PinPort™ (Instech Laboratories, Inc., USA) were inserted in the femoral vein of the rat, fixed with non-absorbable sutures and subcutaneously tunneled and exteriorized through a skin incision made between the shoulders.

[3] = tested on: WD patient-derived hepatocyte like (HLC) cells; test: De-coppering of WD patient-derived hepatocyte like cells (HLC); assay type: cell-based, human; conditions: Cu-histidin 15 μM 24 h, then MB 300 μM 24 h
Method: Urinary epithelial cells were pelleted at 400×g for 10 min from freshly donated mid-stream urine (Zhou et al., J Am Soc Nephrol 22, 1221-1228 (2011)). Cells were cultured in urinary cell medium (UCM) consisting of Dulbecco's modified Eagle medium/Ham's F-12 culture medium (DMEM/F12, Lonza) supplemented with 10% fetal bovine serum (FBS, PAA), 0.1 mM non-essential amino acids (NEAA, Sigma), 0.1 mM β-mercaptoethanol, 1 mM GlutaMAX (Life Technologies), and SingleQuot Kit CC-4127 REGM (Lonza). Urinary epithelial cells were reprogrammed by nucleofection of episomal expression vectors pCXLE-hOCT3/4-shp53-F, pCXLE-hSK, and pCXLE-hUL (Addgene) using the Amaxa Basic Nucleofector Kit (Lonza, VPI-1005). iPS cells (iPSCs) were maintained on Matrigel-coated plates in mTeSR cell culture medium and dissociated with 1 U/ml dispase (Stem Cell Technologies) into small clusters and subcultured every 5 to 7 days. WD iPSCs were differentiated into hepatocyte-like cells (HLCs) by a modification of the method reported previously (Basma et al., Gastroenterology 136, 990-999 (2009)). […] iPSCs were plated in single cells onto 6-well plates precoated with Matrigel. […]
HLCs were incubated at day 14 with Cu-histidin (15 μM) for 24 h in a 6 well plate. […] After 24 h incubation, washed cells were collected, counted and their copper content assessed.

[4] = Stability analysis of MB by absorbance of oxazolone rings; assay type: physicochemical; conditions: time and/or temperature
Method: (C) Stability analysis of metal free MB and Zn-loaded MB followed by absorbance measurements of their two metastable oxazolone rings (OxaA/ZnA at 394 nm and OxaB/ZnB at 340 nm)^57 at 37° C.
(§1) HepG2 cells were kept in MEM with 2% FCS. […] Therefore, Zn-MB, generated by preparing a 20 mM MB solution and adding an equimolar concentration of Zn solution under pH control, was used in cell culture experiments.

HepG2 cells [5] = test: Cellular de-coppering of HepG2 cells (ICP-OES); assay type: cell-based
Method: as §1
To determine the cellular de-coppering efficiency of MB, cells were pretreated with 2% FCS containing medium or 15 μM copper-histidine for 24 h and subsequently subjected to a 24 h treatment with 500 μM MB. Thereafter, cells were washed two times and counted. Copper in 2.5×10^6 cells was determined by ICP-OES after wet ashing of samples with 65% nitric acid.
Copper in liver homogenates, cell lysates and mitochondrial preparations were analyzed by ICP-OES (Ciros Vision, SPECTRO Analytical Instruments GmbH) after wet ashing of samples with 65% nitric acid (Zischka et al., log. cit.).

CSCCC(NC(=O)C1CSSCC(NC(=O)C(CO)NC(=O)CNC(=S)C2N=C(C(=O)CC(C)C)OC2=O)C(=O)NC(Cc2ccc(O)cc2)C(=O)N2CCCC2C2=NC(C(=O)O2)C(=S)NC(CO)C(=O)N1)C(=O)O (stereo not drawn) [MB] (X1-SCY[X2]CM-OH; disulfide 2-5; configuration not given here)
body weight (diseased LPP−/− rats; 16 i.p. injections): regained weight | copper values (diseased LPP−/− rats; end of treatment regimen): exceptionally low copper values | serum AST and bilirubin (diseased LPP−/− rats; end of treatment regimen): normal serum AST and bilirubin | weight regained (diseased LPP−/− rats; moribund animal no. 3): 29% | survival (diseased LPP−/− rats; two daily MB i.p. injections for one week (16 in total), four rats): All animals survived | toxicity to copper-dependent respiratory complex IV activity [1]: significantly less toxic than TTM | intracellular MB uptake (HepG2 cells [2]): taken up in a dose dependent manner | copper associated with LPP−/− mitochondria (LPP−/− mitochondria): rapidly decreased copper | body weight, liver copper concentration, serum AST and bilirubin (LPP+/− rats): remained within the physiological range | signs of toxicity (LPP+/− rats): did not exhibit any signs of toxicity | de-coppering of copper preloaded HLC [3]: Comparable copper depletions; also recorded: highly efficiently de-coppered | decay [4]: susceptible to time- and/or temperature-dependent decay | de-coppering of copper preloaded HepG2 cells (HepG2 cells [5]; 24 h MB treated vs untreated control): highly efficiently de-coppered | reduction of copper in HepG2 cells (HepG2 cells [5]; basic copper load, 24 h 500 μM MB (Zn-MB used in cell culture)): 50% | reduction of copper in HepG2 cells (HepG2 cells [5]; preloaded with 15 μM copper-histidine 24 h, then 24 h 500 μM MB): 50%
